“Also recorded” adds a separate entry of the source. Blank lines part the entries; values can stand above or below the compound they belong to. Where a SMILES comes first, the peptide text is derived from it. The star is where a group is joined. FITC = O=C1OC2(c3ccc(O)cc3Oc3cc(O)ccc32)c2ccc(NC(=S)*)cc21; Ahx = NCCCCCC(=O)O
What was measured:
[1] = Stability of TIPP in processed murine plasma samples (LC-MS/MS validation); assay type: in vitro ADME, mouse; details: compared to nominal concentration, mean ± SD, n = 3, in % (unit assumed)
Description: The stability of TIPP in plasma samples was investigated under different conditions. To evaluate autosampler stability, long-term stability, and short-term stability, up to three replicates of LQC and HQC plasma samples were evaluated when the samples were stored at room temperature for 4 h, at 4 °C for 24 h, and at −80 °C for 4 weeks, respectively. Freeze–thaw stability was also assessed in three cycles from −80 to 25 °C. Concentrations were determined using a TIPP calibrator of the respective validation day. Obtained results were compared to nominal concentrations to determine the stability.

[2] = Sample-preparation stability/recovery of TIPP in water and murine plasma, with stabilizers; assay type: in vitro ADME, mouse
Description: TIPP stock solutions were separately diluted in TDW or murine plasma at a concentration of 1 μg/mL. Samples (10 μL) were subjected to protein precipitation either immediately or after 10 min incubation at room temperature (around 25 °C). A series of reagents were used for protein precipitation, including MeOH (300 μL) and 2% FA-ACN of different volumes (300, 140, 100, and 70 μL). After brief vortex, the samples were centrifuged at 15,000 rcf at 4 °C for 10 min, and the supernatants were collected for chromatographic analysis. In order to increase the signal intensity of highly water-soluble TIPP in organic solvents, a group of liquid–liquid extraction was carried out to separate the aqueous phase from the organic phase. After treating with 300 μL of 2% FA-ACN, the resulting supernatants (300 μL) were mixed with 500 μL of DCM for backwashing. […] After sample preparation, the processed samples were stored at −80 °C until analysis. Before sampling, the prepared sample was thawed, vortexed, and placed in the autosampler.
To choose the optimal stabilizer, the performance of DTT (30 mg/mL), L-AA (10 mg/mL), and PMSF (50 μg/mL) was evaluated. Plasma (90 μL) was mixed with each stabilizer (20 μL), and TIPP (10 μL, 5 μg/mL). The samples were subjected to protein precipitation either immediately or after 10 min incubation at room temperature. For protein precipitation, the samples added with 10 μL of S4 (3 μg/mL) were mixed with 300 μL of 2% FA-ACN and processed as discussed in Section 4.3.1. The aqueous layer was collected for chromatographic analysis. The recovery of TIPP with each stabilizer was determined. Moreover, the stabilizing effect of DTT was further evaluated with different concentrations (2.5, 5, 10, 20, 25, and 40 mg/mL), following the above protocol.

[3] = Elimination of TIPP after intravenous injection in mice (data not shown); assay type: in vivo
[4] = mouse, in vivo, sc, 50 mg/kg
Description: (§1) Whole blood was collected from inner canthus into a tube containing ethylenediaminetetraacetic acid (EDTA) and centrifuged at 5000 rcf for 3 min. Subsequently, 10 μL of plasma samples were diluted with 90 μL TDW. The sample processing process is then executed, and the diluted samples were mixed with 10 μL of S4 solution (3 μg/mL) and 300 μL of 2% FA-ACN in a tube containing 20 μL of DTT solution (25 mg/mL). After centrifugation at 15,000 rcf for 10 min, 300 μL supernatant was transferred to a new tube containing 500 μL of DCM. The mixture was vortexed and centrifuged at 15,000 rcf for 10 min, and the aqueous layer was loaded into the LC-MS/MS system.
(§2) After 4 h fasting (ad libitum water intake), mice were subcutaneously injected with 50 mg/kg TIPP. At 0.5, 1, 2, 5, 10, 15, 20, and 40 min post administration (eight mice at each time points), blood samples were taken from an inner canthus into tubes containing Na2·EDTA and centrifuged at 5000 rcf for 10 min to obtain plasma. All samples were processed as described in Section 4.5.1 immediately.
(§3) PK parameters were calculated as mean ± standard deviation (SD). The Cmax and the time to reach Tmax were calculated based on the highest concentration and the corresponding time point, and t1/2 was calculated from C0 to C40. The area under the curve during the 40 min window (AUC0→40) and the extrapolated value (AUC0→∞) were calculated using the trapezoidal rule, and the elimination rate and concentration at 40 min were extrapolated from 40 min to infinity. The CL/F and Vd/F were calculated using the first-order one-compartment model.
(§4) Analyst® 1.5 software (AB SCIEX) was used for HPLC-MS/MS data processing. A non-compartmental model was employed to fit the PK of TIPP in mice plasma using DAS 2.0 software. […] Results were compared using t test or one-way analysis of variance, which was followed by Dunnett’s multiple comparisons test, with p < 0.05 considered significant.

[5] = tested on: RBL-2H3 cells
Description: (§5) RBL-2H3 cells were obtained from the Cell Resource Center of Shanghai Institutes for Biological Sciences (Shanghai, China) and cultured in complete MEM containing 15% heat-inactivated FBS in a 37 °C incubator (5% CO2 and 95% air). […] To prepare final cell rinse samples, the cells were removed, the supernatant was rinsed with 1 mL of PBS five times, and 90 μL of the final cell rinse was collected and mixed with 10 μL of S4 solution (3 μg/mL) for chromatographic analysis directly. For the preparation of cell lysate samples, the cells (about 10^6 cells) were lysed with 130 μL of RIPA buffer for 30 min on ice, and 100 μL of the cell lysate was collected for sample pre-processing following Section 4.5.1.
(§6) RBL-2H3 cells were seeded in a 35 mm diameter dish at 8 × 10^5 cells and treated with 200 μg/mL TIPP for different durations (5 min, 10 min, 20 min, 30 min, 40 min, 1 h, 3 h, 6 h, 12 h, and 24 h). Then, the cells were subjected to the pre-processing procedures to prepare cell lysates, cell culture supernatants and the final cell rinse samples (Section 4.5.2). In addition, to study TIPP intracellular degradation, the cells were incubated with TIPP for 40 min, which was followed by incubation with TIPP-free medium for 10, 20, 30, 40, and 60 min, respectively. The cell lysates were then harvested at the above time points and pre-processed as presented in Section 4.5.2.

[6] = PK of TIPP via subcutaneous injection in mice; details: female, BALB/c, mouse, plasma, sc, 50 mg/kg; for MRT: mice, 50 mg/kg subcutaneous, mean ± SD, n = 8
Description: as §1, §2, §3, §4

[7] = tested on: RBL-2H3 cells; test: Uptake of TIPP in RBL-2H3 cells by LC-MS/MS (lysates, supernatants, final rinse)
Description: as §5, §6

[8] = tested on: RBL-2H3 cells; test: Confocal visualization of cellular localization of FITC-TIPP; assay type: cell-based, rat; details: confocal microscope
Description: RBL-2H3 cells (4 × 10^4) were seeded in a 35 mm confocal dish and treated with 367 μg/mL FITC-TIPP for 0, 5, 10, 20, 30, 40, and 60 min, respectively. Then, the cells were fixed with 4% paraformaldehyde solution for 10 min and permeabilized with 0.1% Triton-100 for 5 min, which was followed by nuclear staining in a dark place with Hoechst 33342 for 5 min. Finally, the cells were washed, stained with DiI dye solution for 10 min, rinsed with PBS three times, and analyzed with a confocal microscope.

[9] = -SH group substituted with the -OH group; cited from earlier work
Text: The pharmacokinetic properties in animals and its action mechanism also need to be studied using reliable, accurate, and sensitive methods in order to develop TIPP into a new drug. Short peptides can be analyzed using fluorescence labeling, immunoassay, and liquid chromatography-tandem mass spectrometry (LC-MS/MS). Although the visualization and quantification of fluorescently labeled peptides are widely used, there are still some drawbacks. One such flaw is that fluorescent labeling might change the structure of small molecules, resulting in the alteration of physical and chemi ...

Stability in murine plasma, 4 weeks at −80 °C, HQC ([1]; HQC 4000 ng/mL, 4 weeks at −80 °C): 90.70 ± 0.12
Stability in murine plasma, 4 h at room temperature, HQC ([1]; HQC 4000 ng/mL, 4 h at room temperature): 98.02 ± 0.04
Stability in murine plasma, 24 h at 4 °C, HQC ([1]; HQC 4000 ng/mL, autosampler 24 h at 4 °C): 99.35 ± 0.84
Stability in murine plasma, three freeze-thaw cycles, HQC ([1]; HQC 4000 ng/mL, three freeze-thaw cycles at −80–25 °C): 106.00 ± 0.16
Stability in murine plasma, 4 weeks at −80 °C, LQC ([1]; LQC 50 ng/mL, 4 weeks at −80 °C): 90.70 ± 1.61
Stability in murine plasma, 24 h at 4 °C, LQC ([1]; LQC 50 ng/mL, autosampler 24 h at 4 °C): 103.64 ± 2.00
Stability in murine plasma, three freeze-thaw cycles, LQC ([1]; LQC 50 ng/mL, three freeze-thaw cycles at −80–25 °C): 94.23 ± 0.02
Stability of TIPP in aqueous solution ([2]; 1 μg/mL in TDW, 10 min at room temperature (around 25 °C), protein precipitation with only organic reagents, LC-MS/MS intensity): remained stable
Stability of TIPP in plasma without stabilizer ([2]; 1 μg/mL in murine plasma, 10 min at room temperature (around 25 °C), protein precipitation with only organic reagents, LC-MS/MS intensity): intensity decreased significantly
Average recovery of TIPP in plasma with DTT as stabilizer ([2]; murine plasma, 20 mg/mL DTT, immediately or after 10 min at room temperature, LC-MS/MS, n = 3): higher than 95%
Elimination after intravenous injection [3]: rapid elimination
CL/F (apparent clearance rate) [4]: 380 ± 87 L/h/kg
Intracellular t1/2 of TIPP [5]: 5.596 min
AUC(0-inf) [6]: 136 ng·h/mL
AUC(0-t) [6]: 133 ng·h/mL
Cmax [6]: 623 ± 67.1 ng/mL
Tmax [6]: 10 min
Vd/F [6]: 54.4 ± 20.9 L/kg
half-life [6]: 5.99 ± 1.82 min
level at 40 min [6]: ~20 ng/mL
MRT ([6]; MRT(0–t)): 11.3 min
MRT ([6]; MRT(0–∞)): 12.5 min
Intracellular concentration of TIPP (cell lysate) at 20 min ([7]; 200 μg/mL TIPP, 20 min, cells rinsed five times with PBS, RIPA lysate, LC-MS/MS, n = 3): 24.57 ± 4.53 ng/mL
Concentration of TIPP in cell culture supernatant at 12 h ([7]; 200 μg/mL TIPP, MEM with 15% FBS, 37 °C, 12 h, LC-MS/MS, n = 3): below the detection limit
Concentration of TIPP in PBS rinse samples ([7]; 200 μg/mL TIPP, all PBS rinse samples, detection limit, LC-MS/MS): < 0.1 ng/mL
Residual TIPP in the final cell rinse PBS (in words) ([7]; 200 μg/mL TIPP, fifth PBS rinse, LC-MS/MS): No residual TIPP was detected
Intracellular concentration of TIPP (cell lysate), plateau ([7]; 200 μg/mL TIPP, from 30 min onwards, RIPA lysate, LC-MS/MS, n = 3): 38.62 ± 2.47 ng/mL
Compound: C[C@H](N)C(=O)N[C@@H](CCC(=O)O)C(=O)N[C@@H](Cc1c[nH]c2ccccc12)C(=O)N[C@@H](CS)C(=O)N1CCC[C@H]1C(=O)O (H-AEWCP-OH)
Intracellular TIPP about 30 min after substituting TIPP-free medium (in words) ([7]; 40 min with 200 μg/mL TIPP, then TIPP-free medium for 30 min, cell lysates): almost eliminated; also recorded: decreased to near LLOQ

Compound: C[C@H](NC(=O)CCCCCNC(=S)Nc1ccc2c(c1)C(=O)OC21c2ccc(O)cc2Oc2cc(O)ccc21)C(=O)N[C@@H](CCC(=O)O)C(=O)N[C@@H](Cc1c[nH]c2ccccc12)C(=O)N[C@@H](CS)C(=O)N1CCC[C@H]1C(=O)O [FITC-TIPP] ({FITC-Ahx}-AEWCP-OH)
Co-localization of FITC-TIPP with RBL-2H3 cells ([8]; 367 μg/mL FITC-TIPP (same molar concentration as 200 μg/mL TIPP), fluorescence): co-localized with RBL-2H3 cells at 10 min
Fluorescent signal of FITC-TIPP in cells over time ([8]; 367 μg/mL FITC-TIPP, after 30 min, Hoechst 33342 and DiI staining): remained steady after 30 min with significant intranuclear enrichment

Compound: AEWSP [S4, analog of TIPP (AEWSP), used as the internal standard of the LC-MS/MS method]
Stability compared with TIPP [9]: significantly improved
